In publication PMC12638379, “An innovative approach to development of new pyrazolylquinolin-2-one hybrids as dual EGFR and BRAF^V600E inhibitors” (Molecular Diversity, 2025):
Values joined by “and” are separate entries in the source; they are usually repeats but may differ in a detail not shown here. Equal entries are not always repeated. Where two headings read alike, the source gives them in different places.

Assays:
NCI 60 cancer cell lines = test: NCI anticancer screening over a panel of 60 cancer cells, single concentration 10 µM; type: cell-based, human; conditions: Homo sapiens, read-out: % Growth Inhibition (GI %)
Method in brief: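 Primary single-dose screen at 10 µM over the NCI panel of 60 human tumour cell lines (leukemia, CNS, lung, colon, kidney, ovary, breast, prostate). The standard NCI Developmental Therapeutics Program protocol was used.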

[1] = system: breast cancer (T47D) cell line; test: MTT antiproliferative assay, T-47D
Procedure: The median inhibitory concentration (IC50) and GI50 (average IC50) against the three cancer cell lines were calculated. See Appendix B.
Cells were cultured using DMEM (Invitrogen/Life Technologies) supplemented with 10% FBS (Hyclone,), 10 ug/ml of insulin (Sigma), and 1% penicillin-streptomycin. Plate cells (cells density 1.2 – 1.8 × 10,000 cells/well) in a volume of 100µl complete growth medium + 100 ul of the tested compound per well in a 96-well plate for 24 hours before the MTT assay. In atypical experiment, one hundred micro liters of serial 10-fold diluted sterile tested compounds were added to final concentrations of […] using culture media as negative control. After 24 h of culture incubation and supernatants discarded. HOP-92 lung, MOLT-4 leukemia, and T-47D breast cell lines were trypsinized and washed with Ca2/Mg2 free PBS (pH 7.2). we removed cultures from incubator into laminar flow hood or other sterile work area. […] Each test should include a blank containing complete medium without cells. […] Add reconstituted MTT in an amount equal to 10% of the culture medium volume. Return cultures to incubator for 2-4 hours depending on cell type and maximum cell density. […] Spectrophotometrically absorbance was measured at a wavelength of 570 nm. Measure the background absorbance of multiwell plates at 690 nm and subtract from the […] measurement. Results from all experiments were recorded and the percentage of viable cells was calculated.

[2] = system: leukemia (MOLT-4) cell line; test: MTT antiproliferative assay, MOLT-4; type: cell-based, human
Procedure: After 24 h of culture incubation and supernatants discarded.

normal cell line WI-38 = test: MTT cytotoxicity on normal cell line WI-38; conditions: listed as STA

SMILES: C/C(=N\Nc1ccc(C(=O)O)cc1)c1cnn(-c2cc(=O)[nH]c3ccc(Br)cc23)c1C [Compound 4j, (E)-4-(2-(1-(1-(6-bromo-2-oxo-1,2-dihydroquinolin-4-yl)-5-methyl-1H-pyrazol-4-yl)ethylidene)hydrazineyl)benzoic acid]
- inhibition at 10 µM (NCI 60 cancer cell lines; 786-0, Renal cancer 786-0, 10 μM): < 5%
- inhibition at 10 µM (NCI 60 cancer cell lines; A498, Renal cancer A498, 10 μM): < 5%
- inhibition at 10 µM (NCI 60 cancer cell lines; A549, Non-small cell lung cancer A549/ATCC, 10 μM): < 5%
- inhibition at 10 µM (NCI 60 cancer cell lines; ACHN, Renal cancer ACHN, 10 μM): < 5%
- inhibition at 10 µM (NCI 60 cancer cell lines; BT-549, Breast cancer BT-549, 10 μM): < 5%
- inhibition at 10 µM (NCI 60 cancer cell lines; CAKI-1, Renal cancer CAKI-1, 10 μM): 14.7%
- inhibition at 10 µM (NCI 60 cancer cell lines; CCRF-CEM, Leukemia CCRF-CEM, 10 μM): < 5%
- inhibition at 10 µM (NCI 60 cancer cell lines; COLO 205, Colon cancer COLO 205, 10 μM): < 5%
- inhibition at 10 µM (NCI 60 cancer cell lines; DU-145, Prostate cancer DU-145, 10 μM): < 5%
- inhibition at 10 µM (NCI 60 cancer cell lines; EKVX, Non-small cell lung cancer EKVX, 10 μM): 6.05%
- inhibition at 10 µM (NCI 60 cancer cell lines; HCC 2998, Colon cancer HCC-2998, 10 μM): < 5%
- inhibition at 10 µM (NCI 60 cancer cell lines; HCT-15, Colon cancer HCT-15, 10 μM): < 5%
- inhibition at 10 µM (NCI 60 cancer cell lines; HCT-116, Colon cancer HCT-116, 10 μM): < 5%
- inhibition at 10 µM (NCI 60 cancer cell lines; HL-60, Leukemia HL-60(TB), 10 μM): 7.02%
- inhibition at 10 µM (NCI 60 cancer cell lines; HOP-62, Non-small cell lung cancer HOP-62, 10 μM): 5.55%
- inhibition at 10 µM (NCI 60 cancer cell lines; HOP-92, Non-small cell lung cancer HOP-92, 10 μM): < 5%
- inhibition at 10 µM (NCI 60 cancer cell lines; HT-29, Colon cancer HT29, 10 μM): < 5%
- inhibition at 10 µM (NCI 60 cancer cell lines; Hs-578T, Breast cancer HS 578T, 10 μM): 11.7%
- inhibition at 10 µM (NCI 60 cancer cell lines; IGROV-1, Ovarian cancer IGROV1, 10 μM): < 5%
- inhibition at 10 µM (NCI 60 cancer cell lines; K562, Leukemia K-562, 10 μM): < 5%
- inhibition at 10 µM (NCI 60 cancer cell lines; KM12, Colon cancer KM12, 10 μM): < 5%
- inhibition at 10 µM (NCI 60 cancer cell lines; LOX IMVI, Melanoma LOX IMVI, 10 μM): < 5%
- inhibition at 10 µM (NCI 60 cancer cell lines; Leukemia SR, 10 μM): 7.14%
- inhibition at 10 µM (NCI 60 cancer cell lines; MCF7, Breast cancer MCF7, 10 μM): < 5%
- inhibition at 10 µM (NCI 60 cancer cell lines; MDA-MB-231, Breast cancer MDA-MB-231/ATCC, 10 μM): 17%
- inhibition at 10 µM (NCI 60 cancer cell lines; MDA-MB-435, Melanoma MDA-MB-435, 10 μM): < 5%
- inhibition at 10 µM (NCI 60 cancer cell lines; MDA-MB-468, Breast cancer MDA-MB-468, 10 μM): < 5%
- inhibition at 10 µM (NCI 60 cancer cell lines; MOLT-4, Leukemia MOLT-4, 10 μM): < 5%
- inhibition at 10 µM (NCI 60 cancer cell lines; Melanoma M14, 10 μM): < 5%
- inhibition at 10 µM (NCI 60 cancer cell lines; Melanoma MALM-3M, 10 μM): 14.4%
- inhibition at 10 µM (NCI 60 cancer cell lines; NCI-H23, Non-small cell lung cancer NCI-H23, 10 μM): < 5%
- inhibition at 10 µM (NCI 60 cancer cell lines; NCI-H226, Non-small cell lung cancer NCI-H226, 10 μM): 5.42%
- inhibition at 10 µM (NCI 60 cancer cell lines; NCI-H322M, Non-small cell lung cancer NCI-H322M, 10 μM): < 5%
- inhibition at 10 µM (NCI 60 cancer cell lines; NCI-H460, Non-small cell lung cancer NCI-H460, 10 μM): < 5%
- inhibition at 10 µM (NCI 60 cancer cell lines; NCI-H522, Non-small cell lung cancer NCI-H522, 10 μM): < 5%
- inhibition at 10 µM (NCI 60 cancer cell lines; NCI/ADR-RES, Ovarian cancer NCI/ADR-RES, 10 μM): < 5%
- inhibition at 10 µM (NCI 60 cancer cell lines; OVCAR-3, Ovarian cancer OVCAR-3, 10 μM): < 5%
- inhibition at 10 µM (NCI 60 cancer cell lines; OVCAR-4, Ovarian cancer OVCAR-4, 10 μM): < 5%
- inhibition at 10 µM (NCI 60 cancer cell lines; OVCAR-5, Ovarian cancer OVCAR-5, 10 μM): < 5%
- inhibition at 10 µM (NCI 60 cancer cell lines; OVCAR-8, Ovarian cancer OVCAR-8, 10 μM): < 5%
- inhibition at 10 µM (NCI 60 cancer cell lines; Prostate cancer PC-3, 10 μM): < 5%
- inhibition at 10 µM (NCI 60 cancer cell lines; RPMI-8226, Leukemia RPMI-8226, 10 μM): < 5%
- inhibition at 10 µM (NCI 60 cancer cell lines; RXF 393, Renal cancer RXF 393, 10 μM): < 5%
- inhibition at 10 µM (NCI 60 cancer cell lines; SF-268, CNS Cancer SF-268, 10 μM): < 5%
- inhibition at 10 µM (NCI 60 cancer cell lines; SF-295, CNS Cancer SF-295, 10 μM): < 5%
- inhibition at 10 µM (NCI 60 cancer cell lines; SF-539, CNS Cancer SF-539, 10 μM): 7.41%
- inhibition at 10 µM (NCI 60 cancer cell lines; SK-MEL-2, Melanoma SK-MEL-2, 10 μM): < 5%
- inhibition at 10 µM (NCI 60 cancer cell lines; SK-MEL-5, Melanoma SK-MEL-5, 10 μM): < 5%
- inhibition at 10 µM (NCI 60 cancer cell lines; SK-MEL-28, Melanoma SK-MEL-28, 10 μM): < 5%
- inhibition at 10 µM (NCI 60 cancer cell lines; SK-OV-3, Ovarian cancer SK-OV-3, 10 μM): 4.08%
- inhibition at 10 µM (NCI 60 cancer cell lines; SN12C, Renal cancer SN12C, 10 μM): < 5%
- inhibition at 10 µM (NCI 60 cancer cell lines; SNB-19, CNS Cancer SNB-19, 10 μM): < 5%
- inhibition at 10 µM (NCI 60 cancer cell lines; SNB-75, CNS Cancer SNB-75, 10 μM): 17.2%
- inhibition at 10 µM (NCI 60 cancer cell lines; SW-620, Colon cancer SW-620, 10 μM): < 5%
- inhibition at 10 µM (NCI 60 cancer cell lines; T47D, Breast cancer T-47D, 10 μM): 7.76%
- inhibition at 10 µM (NCI 60 cancer cell lines; TK-10, Renal cancer TK-10, 10 μM): < 5%
- inhibition at 10 µM (NCI 60 cancer cell lines; U-251, CNS Cancer U251, 10 μM): < 5%
- inhibition at 10 µM (NCI 60 cancer cell lines; UACC-62, Melanoma UACC-62, 10 μM): 6.6%
- inhibition at 10 µM (NCI 60 cancer cell lines; UACC-257, Melanoma UACC-257, 10 μM): < 5%
- inhibition at 10 µM (NCI 60 cancer cell lines; UO-31, Renal cancer UO-31, 10 μM): 39.3%

SMILES: CN[C@@H]1C[C@H]2O[C@@](C)([C@@H]1OC)n1c3ccccc3c3c4c(c5c6ccccc6n2c5c31)C(=O)NC4 [Staurosporine, reference compound]
- viability at 0.4 µM ([1]; Homo sapiens, T47D): 69%
- viability at 6.3 µM ([1]; Homo sapiens, T47D, 6.3uM (log 0.796)): 45.9%
- viability at 25 µM ([1]; Homo sapiens, T47D, 25uM (log 1.398)): 35%
- viability at 100 µM ([1]; Homo sapiens, T47D, 100uM (log 2), MTT absorbance 450 nm): 29.6%
- % viability ([1]; T47D, 1.6ug (log 0.193), listed as STA): 61.548% and 61.55%
- % viability ([1]; human, 0.4 µM): 69.04%
- % viability ([2]; MOLT-4, 0.4ug (log conc. -0.41), listed as STA): 72.582% and 72.58%
- % viability ([2]; MOLT-4, 1.6ug (log conc. 0.193), listed as STA): 62.059% and 62.06%
- % viability ([2]; MOLT-4, 6.3ug (log conc. 0.796)): 51.82%
- % viability ([2]; MOLT-4, 25ug (log conc. 1.398)): 36.23%
- % viability ([2]; MOLT-4, 100ug (log conc. 2)): 24.46%
- % viability (normal cell line WI-38; WI38, 1.6uM (log conc. 0.19), 1.6 µM): 68.1%
- % viability (normal cell line WI-38; WI38, 100uM (log conc. 2), 100 µM): 37.43%
